How the values were obtained:
Type in all cases: in vivo
barnyard grass (Eo) [1] = test: Test Example 1: herbicidal effects by flooded paddy field treatment; design: herbicidal effects, Eo (barnyard grass):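 0-5 growth inhibition grade; 5 = over 90%; 4 = 70-90%; 3 = 50-70%; 2 = 30-50%; 1 = 10-30%; 0 = under 10%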; settings: dose 100 g active ingredient per 10 ares, examined on the 21st day after treatment, standards of Table 44
Method in brief: (§1)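 Pots hold puddled paddy soil; seeds are sown and the pots flooded 3 cm deep. Next day, diluted wettable powder goes dropwise onto the water at a dose of 100 g active ingredient per 10 ares, and herbicidal effects are rated after 21 days in a greenhouse.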

monochoria (Mo) [2] = test: as above; design: herbicidal effects, Mo (monochoria):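 0-5 growth inhibition grade; 5 = over 90%; 4 = 70-90%; 3 = 50-70%; 2 = 30-50%; 1 = 10-30%; 0 = under 10%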; settings: dose 100 g active ingredient per 10 ares, examined on the 21st day after treatment, standards of Table 44
Method in brief: as §1

barnyard grass (Ec) [3] = test: Test Example 2: herbicidal effects by upland soil treatment; design: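 0-5 growth inhibition grade; 5 = over 90%; 4 = 70-90%; 3 = 50-70%; 2 = 30-50%; 1 = 10-30%; 0 = under 10%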; settings: dose 100 g active ingredient per 10 ares, examined on the 21st day after treatment
Method in brief: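 Pre-emergence test: barnyard grass and green foxtail sown in upland soil, then soil surface sprayed with wettable-powder formulation at 100 g active ingredient per 10 ares (100 l per 10 ares). Grown in greenhouse; herbicidal effect scored on a rating scale 21 days after treatment.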

barnyard grass (Ec) [4] = test: Test Example 3: herbicidal effects by foliage treatment in upland field; design: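 0-5 growth inhibition grade; 5 = over 90%; 4 = 70-90%; 3 = 50-70%; 2 = 30-50%; 1 = 10-30%; 0 = under 10%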; settings: dose 100 g active ingredient per 10 ares, examined on the 14th day after treatment
Method in brief: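 Barnyard grass and green foxtail were grown in upland soil for 2 weeks in a greenhouse. A water-diluted wettable powder was sprayed over the foliage at 100 l per 10 ares, giving 100 g active ingredient per 10 ares. Herbicidal effect was scored on day 14 after treatment.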

barnyard grass (Eo) [5] = test: Test Example 4: selectivity for a crop plant by flooded paddy field treatment; design: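 0-5 growth inhibition grade; 5 = over 90%; 4 = 70-90%; 3 = 50-70%; 2 = 30-50%; 1 = 10-30%; 0 = under 10%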; settings: barnyard grass, dose 25 gai/10a, 21st day after treatment, index per Table 44
Method in brief: (§2)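 Rice at the second-leaf stage is transplanted into puddled, 3 cm-flooded paddy soil alongside sown weed seeds, and a diluted wettable powder is dripped onto the water surface the following day at 25 g a.i./10 ares. Effects are rated 21 days later.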

monochoria (Mo) [6] = test: as above; design: scale not given here; settings: monochoria, dose 25 gai/10a, 21st day after treatment, index per Table 44
Method in brief: as §2

rice (Or) = test: as above; design: scale not given here; settings: rice transplanted at second leaf stage, dose 25 gai/10a, 21st day after treatment, index per Table 44
Method in brief: as §2

SMILES	herbicidal effects, Eo (barnyard grass) (barnyard grass (Eo) [1])	herbicidal effects, Mo (monochoria) (monochoria (Mo) [2])	Ec (herbicidal effects, index) (barnyard grass (Ec) [3])	Ec (herbicidal effects, index) (barnyard grass (Ec) [4])	Eo (herbicidal effect index) (barnyard grass (Eo) [5])	Mo (herbicidal effect index) (monochoria (Mo) [6])	Or (herbicidal effect index on crop) (rice (Or))
CCCc1ncncc1C(CCC)N(C)C(=O)Cc1ccccc1 (racemic) [1-492]	5	5	5	5	5	5	0
CCCc1ncncc1C(CCC)N(C)C(=O)Cc1ccc(F)cc1 (racemic) [1-493]	5	5	5	4	5	5	1
CCCc1ncncc1C(CCC)N(C)C(=O)Cc1ccc(Cl)cc1 (racemic) [1-494]	5	5	5	5	5	5	1
CON=Cc1ncncc1C(C(C)C)N(C)C(=O)Cc1ccccc1 (racemic) [1-496]	5	5	5	4	5	5	1
CC(C)C(c1cncnc1C#N)N(C)C(=O)Cc1ccc(F)cc1 (racemic) [1-505]	5	5	5	5	5	5	0
CC(C)C(c1cncnc1C#N)N(C)C(=O)Cc1ccc(Cl)cc1 (racemic) [1-506]	5	5	5	4	5	5	1
Cc1ccc(CC(=O)N(C)C(c2cncnc2C#N)C(C)C)cc1 (racemic) [1-507]	5	5	5	4	5	5	1
COC(C)(OC)c1ncncc1C(C(C)C)N(C)C(=O)Cc1ccc(Cl)cc1 (racemic) [1-517]	5	5	5	4	5	5	1
C=CCN(C(=O)Cc1ccc(F)cc1)C(c1cncnc1C(F)(F)F)C(C)C (racemic) [1-519]	5	5	5	4	5	5	1
CC(=O)c1ncncc1C(C(C)C)N(C)C(=O)Cc1ccc(F)cc1 (racemic) [1-527]	5	5	5	4	5	5	1
CC(=O)c1ncncc1C(C(C)C)N(C)C(=O)Cc1ccc(Cl)cc1 (racemic) [1-528]	5	5	5	4	5	5	1
CC(=O)c1ncncc1C(C(C)C)N(C)C(=O)Cc1ccc(C)cc1 (racemic) [1-529]	5	5	5	5	5	5	1
CCc1ncncc1C(C(C)C)N(C)C(=O)N(C)c1ccc(C)cc1 (racemic) [1-541]	5	5	5	4	5	5	1
CN(C(=O)Cc1ccc(F)cc1)C(c1ccccc1F)c1cncnc1C(F)(F)F (racemic) [1-547]	5	5	5	4	5	5	1
C#CCN(C(=O)Cc1ccccc1)C(c1cncnc1CC)C(C)C (racemic) [1-558]	5	5	5	4	5	5	1
C#CCN(C(=O)Cc1ccc(F)cc1)C(c1cncnc1CC)C(C)C (racemic) [1-559]	5	5	5	4	5	5	1
CCc1ncncc1C(N(C)C(=O)Cc1ccc(Cl)cc1)C(C)(C)C (racemic) [1-566]	5	5	5	4	5	5	1
C#CCN(C(=O)Cc1cccc(F)c1)C(c1cncnc1C(F)(F)F)C(C)C (racemic) [1-569]	5	5	5	5	5	5	1
CCC(c1cncnc1C(C)(C)C)N(C)C(=O)Cc1ccc(Cl)cc1 (racemic) [1-572]	5	5	5	4	5	5	1
CC(C)C(c1cncnc1C(F)(F)F)N(CC#N)C(=O)Cc1ccc(F)cc1 (racemic) [1-579]	5	5	5	4	5	5	1
COCC(c1cncnc1C(C)C)N(C)C(=O)Cc1ccc(Cl)cc1 (racemic) [1-584]	5	5	5	4	5	5	1
C#CCN(C(=O)Cc1ccccc1)C(CCC)c1cncnc1CC (racemic) [1-606]	5	5	5	4	5	5	1
C#CCN(C(=O)Cc1ccc(F)cc1)C(CCC)c1cncnc1CC (racemic) [1-607]	5	5	4	4	5	5	1
C#CCN(C(=O)Cc1ccc(C)cc1)C(CCC)c1cncnc1CC (racemic) [1-609]	5	5	5	4	5	5	1
C#CCN(C(=O)Cc1ccc(F)cc1)C(CCC)c1cncnc1C(C)C (racemic) [1-611]	5	5	5	4	5	5	1

Source: patent US6806230B1, “Pyrimidine derivatives and herbicides containing them” (Kumiai Chemical Industry Co., Ltd., priority 1999, dated 2004)
